Results from paper PMC11189555, “Aryl amino acetamides prevent Plasmodium falciparum ring development via targeting the lipid-transfer protein PfSTART1” (Nature Communications, 2024).

Tests used:
LSG1 (Q8ILF2) = assay: Solvent-PISA (solvent proteome profiling, DIA-MS); assay type: binding, Plasmodium falciparum; details: WEHI991_vs_DMSO, gradient G1, LSG1
RECQ1 (Q8I2W7) = assay: Solvent-PISA (solvent proteome profiling, DIA-MS); assay type: binding, Plasmodium falciparum; details: WEHI991_vs_DMSO, gradient G1, RECQ1
VPS51 (Q8I2A9) = assay: Solvent-PISA (solvent proteome profiling, DIA-MS); assay type: binding, Plasmodium falciparum; details: WEHI991_vs_DMSO, gradient G1, VPS51
Hyp1-Nluc parasites = assay: Egress, invasion & recovery assay (Nluc bioluminescence, smears); assay type: cell-based, Plasmodium falciparum; details: schizonts treated 4 h: M-833 2 µM, W-991 60 nM, ML10 30 nM, E64 10 µM, heparin 100 µg/mL; then washed off
Source text: To measure egress, invasion, and follow-up recovery in the presence of different compounds, we adapted the method developed in[11], using Hyp1-Nluc parasites. A full description is in the Supplementary Information. […]
and compound 4. Note that M-833 was first purchased from MolPort (MolPort -002-267-916) then made in-house at WEHI: the differences observed in EC50s across experiments are attributed to the different batches of M -833. […]
Egress, invasion & recovery assay. To measure egress, invasion and follow up recovery in the presence of different compounds, we adapted the method developed in6, using Hyp1-Nluc parasites7. These parasites episomally express the exported PEXEL protein Hyp1 (PF3D7_0113300) tagged with a NanoLuc luciferase (NLuc) and were selected with 2.5 nM WR99210 (Jacobus). Highly synchronised schizonts were obtained using ML10 (LifeArc) and sorbitol synchronisation, and Percoll-purified (the culture was gently layered over 67% Percoll (Cytiva) in RPMI, and centrifuged for 15 min at 1500 g and the schizont layer was collected and washed). In a 96-well plate, […]
cultures were set up in 4 replicates (3 replicates for the Nluc readout, and one replicate for Giemsa smears) with 1-2% parasitemia, 2% haematocrit, with the following […]
100 μg/ml heparin (Sigma) and 10 μM E64 (Sigma). The schizonts were allowed to egress and invade for 4 h at 37°C. A “background” plate without treatment was left in the fridge during this time. After 4 h, cultures were sorbitol -treated to eliminate schizonts that have not egressed. Smears were made every day for the following 3 days, and 5 μL of the resuspended cultures were taken to measure Nluc activity (to assess parasite’s presence). To measure Nluc activity, 5 μL culture were added to 45 μL NanoGlo reagent (1x Promega lysis buffer and NanoGlo reagent; Promega). The average luminescence of the background cultures was subtracted to the average luminescence of each sample. […]
The viable parasite value was then expressed in log units and parasite reduction ratio was calculated as a decrease in […]

Row | Compound | Differential abundance (LSG1 (Q8ILF2)) | Differential abundance (RECQ1 (Q8I2W7)) | Differential abundance (VPS51 (Q8I2A9)) | parasite growth (Nluc bioluminescence) followed 72 h after 4 h treatment (Hyp1-Nluc parasites)
1 | CC(C)(Nc1ccc(Cl)c(S(=O)(=O)N2CCOCC2)c1)C(=O)Nc1ccc(F)c(Cl)c1 [WEHI991] | 0.5417 | 0.6685 | 0.7605 | 
2 | heparin [reference compound] |  |  |  | virtually no recovery after three days
